Reference: article PMC7071059, “Targeting Receptor Tyrosine Kinase VEGFR-2 in Hepatocellular Cancer: Rational Design, Synthesis and Biological Evaluation of 1,2-Disubstituted Benzimidazoles” (Molecules, 2020)

Experiments:
PC-3 = experiment: NCI 60 one dose (10 μM) anticancer assay; format: cell-based; details: Homo sapiens, 10 µM one dose, Prostate Cancer, read-out: Growth Inhibition % PC-3
Description: (§1) Some of the synthesized compounds were selected by the NCI, Bethesda, MD, USA for evaluation of their anticancer activity. An in vitro one dose (10 μM) anticancer assay was conducted on a full NCI 60-cell line panel derived from 9 different cancer types. Table 2 presents the percent of growth inhibition of some cell lines. […] K-562 and MOLT-4 from leukemia, NCI-H522 from non-small cell lung cancer, HCT-116 from colon cancer, SK-MEL-5 and UACC-62 from melanoma, UO-31 from renal cancer, PC-3 from prostate cancer and HS 578T and T-47D from breast cancer are the most sensitive cell lines to the tested compounds. No growth inhibition was observed from the selected compounds against COLO205, HCC-2998, MALME-3M, SK-MEL-28, DU-145 and BT-549 cell lines. […] Against UO-31 from renal cancer and PC-3 from prostate cancer, it inhibited the growth of 44% and 58% of the cancer cells, respectively.

HCT-116 = experiment: NCI 60 one dose (10 μM) anticancer assay; format: cell-based; details: Homo sapiens, 10 µM one dose, Colon Cancer, read-out: Growth Inhibition % HCT-116
Description: as §1

HL-60(TB) = experiment: NCI 60 one dose (10 μM) anticancer assay; format: cell-based; details: Homo sapiens, 10 µM one dose, Leukemia, read-out: Growth Inhibition % HL-60(TB)
Description: as §1

T-47D = experiment: NCI 60 one dose (10 μM) anticancer assay; format: cell-based; details: Homo sapiens, T47D; 10 µM one dose; Breast Cancer; read-out: Growth Inhibition % T-47D
Description: as §1

HT29 = experiment: NCI 60 one dose (10 μM) anticancer assay; format: cell-based; details: Homo sapiens, HT-29; 10 µM one dose; Colon Cancer; read-out: Growth Inhibition % HT29
Description: as §1

LOX IMVI = experiment: NCI 60 one dose (10 μM) anticancer assay; format: cell-based; details: Homo sapiens, 10 µM one dose, Melanoma, read-out: Growth Inhibition % LOX IMVI
Description: as §1

M14 = experiment: NCI 60 one dose (10 μM) anticancer assay; format: cell-based; details: Homo sapiens, 10 µM one dose, Melanoma, read-out: Growth Inhibition % M14
Description: as §1

OVCAR-8 = experiment: NCI 60 one dose (10 μM) anticancer assay; format: cell-based; details: Homo sapiens, 10 µM one dose, Ovarian Cancer, read-out: Growth Inhibition % OVCAR-8
Description: as §1

CAK1-1 = experiment: NCI 60 one dose (10 μM) anticancer assay; format: cell-based; details: 10 µM one dose; Renal Cancer; read-out: Growth Inhibition % CAK1-1
Description: as §1

KM12 = experiment: NCI 60 one dose (10 μM) anticancer assay; format: cell-based; details: Homo sapiens, 10 µM one dose, Colon Cancer, read-out: Growth Inhibition % KM12
Description: as §1

TK-10 = experiment: NCI 60 one dose (10 μM) anticancer assay; format: cell-based; details: Homo sapiens, 10 µM one dose, Renal Cancer, read-out: Growth Inhibition % TK-10
Description: as §1

SNB-19 = experiment: NCI 60 one dose (10 μM) anticancer assay; format: cell-based; details: Homo sapiens, 10 µM one dose, CNS Cancer, read-out: Growth Inhibition % SNB-19
Description: as §1

OVCAR-5 = experiment: NCI 60 one dose (10 μM) anticancer assay; format: cell-based; details: Homo sapiens, 10 µM one dose, Ovarian Cancer, read-out: Growth Inhibition % OVCAR-5
Description: as §1

NCI-H522 = experiment: NCI 60 one dose (10 μM) anticancer assay; format: cell-based; details: Homo sapiens, 10 µM one dose, Non-small cell lung Cancer, read-out: Growth Inhibition % NCI-H522
Description: as §1

MDA-MB-468 = experiment: NCI 60 one dose (10 μM) anticancer assay; format: cell-based; details: Homo sapiens, 10 µM one dose, Breast Cancer, read-out: Growth Inhibition % MDA-MB-468
Description: as §1

UACC-62 = experiment: NCI 60 one dose (10 μM) anticancer assay; format: cell-based; details: Homo sapiens, 10 µM one dose, Melanoma, read-out: Growth Inhibition % UACC-62
Description: as §1

NCI/ADR-RES = experiment: NCI 60 one dose (10 μM) anticancer assay; format: cell-based; details: Homo sapiens, 10 µM one dose, Ovarian Cancer, read-out: Growth Inhibition % NCI/ADR-RES
Description: as §1

K-562 = experiment: NCI 60 one dose (10 μM) anticancer assay; format: cell-based; details: Homo sapiens, K562; 10 µM one dose; Leukemia; read-out: Growth Inhibition % K-562
Description: as §1

NCI-H460 = experiment: NCI 60 one dose (10 μM) anticancer assay; format: cell-based; details: Homo sapiens, 10 µM one dose, Non-small cell lung Cancer, read-out: Growth Inhibition % NCI-H460
Description: as §1

HOP-62 = experiment: NCI 60 one dose (10 μM) anticancer assay; format: cell-based; details: Homo sapiens, 10 µM one dose, Non-small cell lung Cancer, read-out: Growth Inhibition % HOP-62
Description: as §1

MDA-MB-435 = experiment: NCI 60 one dose (10 μM) anticancer assay; format: cell-based; details: Homo sapiens, 10 µM one dose, Melanoma, read-out: Growth Inhibition % MDA-MB-435
Description: as §1

HCT-15 = experiment: NCI 60 one dose (10 μM) anticancer assay; format: cell-based; details: Homo sapiens, 10 µM one dose, Colon Cancer, read-out: Growth Inhibition % HCT-15
Description: as §1

NCI-H226 = experiment: NCI 60 one dose (10 μM) anticancer assay; format: cell-based; details: Homo sapiens, 10 µM one dose, Non-small cell lung Cancer, read-out: Growth Inhibition % NCI-H226
Description: as §1

MOLT-4 = experiment: NCI 60 one dose (10 μM) anticancer assay; format: cell-based; details: Homo sapiens, 10 µM one dose, Leukemia, read-out: Growth Inhibition % MOLT-4
Description: as §1

MDA-MB-231/ATTC = experiment: NCI 60 one dose (10 μM) anticancer assay; format: cell-based; details: Homo sapiens, 10 µM one dose, Breast Cancer, read-out: Growth Inhibition % MDA-MB-231/ATTC
Description: as §1

MCF7 = experiment: NCI 60 one dose (10 μM) anticancer assay; format: cell-based; details: Homo sapiens, 10 µM one dose, Breast Cancer, read-out: Growth Inhibition % MCF7
Description: as §1

RXF 393 = experiment: NCI 60 one dose (10 μM) anticancer assay; format: cell-based; details: Homo sapiens, 10 µM one dose, Renal Cancer, read-out: Growth Inhibition % RXF 393
Description: as §1

786-0 = experiment: NCI 60 one dose (10 μM) anticancer assay; format: cell-based; details: Homo sapiens, 10 µM one dose, Renal Cancer, read-out: Growth Inhibition % 786-0
Description: as §1

HepG2 cell line = experiment: In vitro cytotoxic activity, Sulfo-Rhodamine-B (SRB) assay; format: cell-based, human; details: Homo sapiens, HepG2, 48 h, SRB assay, 48 h; mean of three independent experiments; read-out: IC50 (μM) on HepG2 Cell Line

SMILES | inhibition at 10 µM (PC-3) [%] | inhibition at 10 µM (HCT-116) [%] | inhibition at 10 µM (HL-60(TB)) [%] | inhibition at 10 µM (T-47D) [%] | inhibition at 10 µM (HT29) [%] | inhibition at 10 µM (LOX IMVI) [%] | inhibition at 10 µM (M14) [%] | inhibition at 10 µM (OVCAR-8) [%] | inhibition at 10 µM (CAK1-1) [%] | inhibition at 10 µM (KM12) [%] | inhibition at 10 µM (TK-10) [%] | inhibition at 10 µM (SNB-19) [%] | inhibition at 10 µM (OVCAR-5) [%] | inhibition at 10 µM (NCI-H522) [%] | inhibition at 10 µM (MDA-MB-468) [%] | inhibition at 10 µM (UACC-62) [%] | inhibition at 10 µM (NCI/ADR-RES) [%] | inhibition at 10 µM (K-562) [%] | inhibition at 10 µM (NCI-H460) [%] | inhibition at 10 µM (HOP-62) [%] | further results
Cc1ccc(-c2nc3ccccc3n2CC(=O)N/N=C/c2ccc(OCc3ccccc3)cc2)o1 [Compound 17d, (E)-N′-(4-(Benzyloxy)benzylidene)-2-(2-(5-methylfuran-2-yl)-1H-benzo[d]imidazol-1-yl)acetohydrazide] | 29 | < 10 | 19 | 31 | < 10 | 17 | < 10 | 20 | 21 | < 10 | < 10 | < 10 | < 10 | 27 | < 10 | < 10 | < 10 | 41 | < 10 | 17 | inhibition at 10 µM (MDA-MB-435): < 10%; inhibition at 10 µM (HCT-15): 25%; inhibition at 10 µM (NCI-H226): < 10%; inhibition at 10 µM (MOLT-4): 40%; inhibition at 10 µM (MDA-MB-231/ATTC): 18%; inhibition at 10 µM (MCF7): 19%; inhibition at 10 µM (RXF 393): < 10%; inhibition at 10 µM (786-0): < 10%; IC50 (HepG2 cell line): 15.6 µM; melting point: 201 to 203 °C
CC(C)c1nc2ccccc2n1CC(=O)N/N=C/c1cccc(OCc2ccccc2)c1 [Compound 17a, (E)-N′-(3-(Benzyloxy)benzylidene)-2-(2-isopropyl-1H-benzo[d]imidazol-1-yl)acetohydrazide] | 58 | 66 | 32 | 32 | < 10 | < 10 | 16 | < 10 | < 10 | < 10 | < 10 | 22 | < 10 | 33 | 47 | 41 | < 10 | 57 | < 10 | < 10 | inhibition at 10 µM (MDA-MB-435): < 10%; inhibition at 10 µM (HCT-15): < 10%; inhibition at 10 µM (NCI-H226): 29%; inhibition at 10 µM (MOLT-4): 50%; inhibition at 10 µM (MDA-MB-231/ATTC): 25%; inhibition at 10 µM (MCF7): < 10%; inhibition at 10 µM (RXF 393): < 10%; inhibition at 10 µM (786-0): 24%; IC50 (HepG2 cell line): 1.98 µM
